The test system of series [1] is H460 non-small cell lung cancer. Briefly: Cytotoxicity test of human tumor cell line in vitro (CTG, 72 hours). It is filed as cell-based. Particulars: Homo sapiens, NCI-H460; H460, 72 hours exposure. The procedure: IC50 values were obtained by the following methods. The cancer cells were exposed to various concentrations of compounds for 72 hours. Following by washing steps, fresh medium was added to allow the growth of the cancer cells. The cancer cells were stained to obtain cell viability. Then, comparisons were made with the medium-only control.
Specifically, the exponentially growing cells were seeded in 96-well plates at a density of 2×10^3 cells/well, and 100 μL/well. The cells were incubated for 24 hours at 37° C., in 5% CO2, in 95% air, and 100% relative humidity. Next, 99 μL of culture medium was added. The compounds were dissolved in 100% DMSO at 200 times the desired final test concentration. Upon addition of compounds, the compounds were further diluted to 4 times the desired final concentration with a complete medium. Aliquots of 1 μL of compounds at specific concentration were added to the micro-wells containing 199 μL of medium to obtain the final compound concentrations as reported. After the compounds were added, the plates were incubated for an addition 72 hours at 37° C., in 5% CO2, in 95% air, and 100% relative humidity.
The plates to be test containing the cells were equilibrated at room temperature for 30 minutes, and 100 μL of medium per well was discarded. 100 μL of CTG reagent (CelltiterGlo Kit) was added to each well. The plates were placed in a fast-shaker to shake for 2 minutes, and placed at room temperature for 30 minutes in the dark. Chemoluminescence signal values were read with Envision instrument.

Another series addresses T1, CYP450R enzyme (Homo sapiens, UniProt P16435).
T1 sequence (P16435 1-677): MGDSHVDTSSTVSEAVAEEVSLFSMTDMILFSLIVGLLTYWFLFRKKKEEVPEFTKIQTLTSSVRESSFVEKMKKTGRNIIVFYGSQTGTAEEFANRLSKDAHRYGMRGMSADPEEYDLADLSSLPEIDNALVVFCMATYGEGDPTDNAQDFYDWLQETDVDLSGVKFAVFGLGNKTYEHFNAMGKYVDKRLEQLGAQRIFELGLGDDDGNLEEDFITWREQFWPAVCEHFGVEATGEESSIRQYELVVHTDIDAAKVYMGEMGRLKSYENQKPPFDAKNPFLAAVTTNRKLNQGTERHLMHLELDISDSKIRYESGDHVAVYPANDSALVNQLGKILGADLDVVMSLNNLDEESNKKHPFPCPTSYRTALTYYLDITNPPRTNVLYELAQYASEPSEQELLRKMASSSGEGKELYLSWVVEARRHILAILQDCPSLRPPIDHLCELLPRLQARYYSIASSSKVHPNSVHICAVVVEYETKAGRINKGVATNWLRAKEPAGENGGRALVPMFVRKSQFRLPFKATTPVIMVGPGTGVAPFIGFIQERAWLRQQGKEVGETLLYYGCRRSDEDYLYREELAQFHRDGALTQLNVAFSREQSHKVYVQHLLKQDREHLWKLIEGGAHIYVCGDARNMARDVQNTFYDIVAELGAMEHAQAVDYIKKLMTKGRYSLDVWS
The experiment in a line: Hypoxia-dependent reduction experiment with NADPH and CYP450R. It is filed as biochemical. Particulars: in the presence of NADPH and CYP450R enzymes. The procedure:
Ingredients were added to each tube without NADPH. Next, 50 μL of the condition B samples were transferred into 100 μL of acetonitrile (T=0). For the samples to be tested under hypoxia condition, the tubes were placed in a hypoxia chamber (BACTRON anaerobic/environmental chamber). The reactions were initiated by adding NADPH to tube A and tube C. Then, the samples with NADPH were placed at 37° C. For the samples to be tested in air condition, the tubes were placed in a hot plate at 37° C. After 30 minutes and 2 hours of incubation, 50 μL of samples were taken from each tube and mixed with 100 μL of acetonitrile. All tubes were spun to remove any protein precipitate and placed in HPLC vials for analysis. The results were compared with the standard curve of the authentic standard. The specific composition of the reagents in each sample reaction tube was shown as follow.
The drugs relative to the initial amount of the test drug (TH-302, compound 01) of the 3 different sample reaction tubes of A/B/C that have been reacted for different times (0/30 min/120 min). The results of adding different concentrations of human NADPH coenzyme were shown in FIG. 3 and FIG. 4, respectively.

A short description of another series: Plasma stability, mouse. It counts as in vitro ADME. As for the experimental part: Frozen plasma was melted immediately in a water bath at 37° C. […] The supernatants were collected into new tubes, respectively. pH values of the plasma were checked and recorded. Note: a, no more 2 times melted plasma was used since the sample was received; b, the plasma in pH 7 to pH 8 was used.
1 mM of working solution of the test compounds and the control compound, propantheline, were prepared in DMSO. 1 mM of working solution of the control compound in […] was prepared in acetonitrile. 4 μL of the working solutions were added to 796 μL of pre-incubated plasma respectively to achieve a final concentration of 5 μM. The final concentration of solvent was 0.5%.
[…] The test was performed in duplicate. […] 50 μL of the labeled plasma was added to new tubes containing 300 μL of the quench solution of room temperature, i.e., the sample with a preparation time of 0. The samples were vortexed to mix for 5 minutes. […] 100 μL of the supernatant was transferred to new plates.

Another series deals with UV41 cell line. Briefly: Cytotoxicity on UV41 cell line with DNA repair gene mutation (2 hours exposure, AlamarBlue). It is filed as cell-based, Chinese hamster. Particulars: Cricetulus griseus; UV41, 2 hours exposure, then 70 hours, normoxic. As for the experimental part: UV41 cell line is a derivative of CHO-AA8 cell line, derived from the UV-sensitive line of AA8. The cell line is a cell line with damaged homologous recombination DNA repair enzymes and damaged nucleotide excision repair enzymes caused by mutations in ERCC4/XPF gene of DNA.
Specifically, the exponentially growing cells were seeded in 96-well plates at a density of 4×10^3 cells/well and incubated at 37° C., in 5% CO2, 95% air, and 100% relative humidity. Next, 24 hours later, the test compounds were added. The test compounds were dissolved in 100% DMSO at 200 times the desired final test concentration. Upon addition of the test compounds, the test compounds were further diluted with the complete medium to 4 times the desired final concentration. Aliquots of 50 μL of the compounds at specific concentrations were added to the microwells containing 150 μL of medium to obtain the final compound concentrations as reported. After the test compounds were added, the plates were incubated for an addition 2 hours at 37° C., in 5% CO2, 95% air, and 100% relative humidity. Then, the compounds were washed off, and fresh medium was added to the plates. The plates were incubated for an addition 70 hours at 37° C., in 5% CO2, 95% air, and 100% relative humidity. At the end of this incubation, AlamarBlue reagent was used to quantify viable cells.
For orientation: The colour change of resazurin is a common sign of viable cells or microbes.

A word on the IC50: it is the concentration at which inhibition is half-maximal.

As for `O=[N+]([O-])c1ccc(C(OP(=O)(N2CC2)N2CC2)C(F)(F)F)c2ccccc12` (stereo not drawn) [Compound 01], the IC50 worked out at 128 nM in series [1] and 340 nM in the series with UV41 cell line. The “Reduction ratio compared with TH-302” value on CYP450R enzyme is on record as “similar”. On CYP450R enzyme (37° C.), the Hypoxia-dependent reduction result is recorded as “showed the hypoxia-dependent reduction reaction”. The Remaining percentage in “Plasma stability, mouse” (Mouse plasma, 5 μM, 37° C., after 30 minutes) was 55.07%. The “Stability in plasma (conclusion)” value in the series “Plasma stability, mouse” (mouse) is reported as “relatively unstable”.

The values above are taken from patent US20230026163A1, “ANTICANCER COMPOUND AND MEDICAL USE THEREOF” (ASCENTAWITS PHARMACEUTICALS, LTD., priority 2019, published 2023).
